Each block holds one compound with its values, some of them ahead of it.
Legend:
[1] = system: diabetic N0STZ rat islets; experiment: Insulin secretion in diabetic N0STZ rat islets; assay type: cell-based; settings: 90 min, Means±SEM
Procedure: 14±3 weeks non-fasted N0STZ (PORTHA et al., 1974) male rats (Charles Rivers-Domaine des Oncins, I'Arbresle, France) were anesthetized with sodium pentobarbital (Nembutal®: 45 mg/kg in 5 ml/kg administered intra peritoneally) and body temperature was maintained with a heat lamp.
Rat pancreatic islets of Langerhans were isolated from the pancreas of 8 rats by collagenase P (Boehringer, Meylan, France) digestion. Islets were purified by sedimentation in Hanks balanced salt solution [NaCl (137 mM); KCl (5.36 mM); MgSO4, 7 H2O (0.81 mM); Na2HPO4, 12 H2O (0.34 mM); KH2PO4 (0.44 mM); CaCl2, 2 H2O (1.26 mM); NaHCO3 (4.17 mM)] followed by Ficoll gradient separation. Islets were then hand-picked under stereoscopic microscope and batches of 3 islets were incubated for 90 minutes at 37° C. with continuous shaking under a humidified condition ([…], 5% CO2) in 1 ml of Krebs/Hepes pH 7 solution [NaCl (115 mM), NaHCO3 (24 mM), KCl (5 mM), MgCl2 (1 mM), CaCl2, 2 H2O (1 mM), 0.2% of Bovine serum albumin (Fraction V, fatty acid free, Boehringer, Mannheim), 10 mM Hepes] containing the required glucose or compound concentration. Compounds were dissolved in DMSO at 2.10-2M stock solutions. They were then diluted at the required concentration in Krebs/Hepes buffer containing the required glucose concentration.
At the end of incubation, media was collected and insulin levels were measured using ELISA (EUROBIO, Courtaboeuf, France).
Islets were hand-picked and incubated in the presence of increasing concentrations of compounds in the presence of glucose at 2.8 or 8 mM. At the end of incubation, media was collected and insulin levels were measured using ELISA method. Results are expressed as % of glucose control (2.8 or 8 mM) and represent Means±SEM.

INS-1 cells = experiment: Insulin secretion assay in INS-1 cells (glucose at 4.2 mM); assay type: cell-based, rat; settings: 1 h incubation; for activity at 10 µM: Rattus norvegicus, INS1, glucose 4.2 mM, compound 10 μm, read-out: Insulin secretion, % of ctrl at 10 μm of cpd; for Insulin secretion, % of ctrl at 50 μm of cpd: glucose 4.2 mM, compound 50 μm
Procedure: INS-1 cells were cultured in complete medium, RPMI1640 containing 1 mM sodium pyruvate, 50 μM 2-mercaptoethanol, 2 mM glutamine, 10 mM HEPES, 100 IU/mL penicillin, and 100 μg/mL streptomycin (CM), supplemented with 10 mM glucose, and 10% (vol/vol) heat-inactivated fetal […] (FCS), as described by Asfari et al. (Endocrinology 130: 167-178, 1992).
INS-1 cells were plated and cultured in 48-well plates. After 2 days of culture, the medium was removed and cells were cultured for 24 h with a medium change to 5 mM glucose, 1% FCS. The cells were then washed with Krebs-Ringer Bicarbonate HEPES buffer (KRBH; 135 mM NaCl; 3.6 mM KCl; 5 mM NaHCO3; 0.5 mM NaH2PO4; 0.5 mM MgCl2; 1.5 mM CaCl2 and 10 mM HEPES; pH 7.4) 0.1% BSA containing 2.8 mM glucose and preincubated for 30 min at 37° C. in the same buffer. The cells were then washed twice and incubated for 1 h in KRBH 0.1% BSA containing 4.2 mM glucose and different concentrations of the tested molecule. Insulin concentration in the collected supernatants was measured with ELISA using rat insulin antibody (Insulin Rat Elit PLUS, cat, ref 10-1145-01).
Insulin secretion results are expressed in % of control (glucose 4.2 mM).

[2] = glucose 2.8 mM, compound 10−4 M

SMILES: O=c1c(-c2ccc(Cl)cc2)nc2cccnc2n1CC1CC1 [Example 3, 2-(4-chlorophenyl)-4-cyclopropylmethylpyrido[2,3-b]pyrazin-3(4H)-one]
Insulin secretion, % of glucose control [1, 2]: 85 ± 8 % of glucose control
Insulin secretion, % of glucose control ([1]; glucose 8 mM, compound 10−4 M): 168 ± 7 % of glucose control
Insulin secretion, % of glucose control ([1]; glucose 8 mM, compound 10−5 M): 145 ± 9 % of glucose control
Insulin secretion, % of glucose control ([1]; glucose 8 mM, compound 10−6 M): 110 ± 7 % of glucose control
Insulin secretion, % of glucose control ([1]; glucose 8 mM, compound 10−7 M): 100 ± 7 % of glucose control
activity at 10 µM (INS-1 cells): 241%
Insulin secretion, % of ctrl at 50 μm of cpd (INS-1 cells): 398 % of ctrl

SMILES: CCn1c(=O)c(-c2ccc(Cl)cc2)nc2cccnc21 [Example 3-2, 2-(4-chlorophenyl)-4-ethylpyrido[2,3-b]pyrazin-3(4H)-one]
activity at 10 µM (INS-1 cells): 240%
Insulin secretion, % of ctrl at 50 μm of cpd (INS-1 cells): 263 % of ctrl

SMILES: CCn1c(=O)c(-c2ccc(F)cc2)nc2cccnc21 [Example 3-3, 2-(4-fluorophenyl)-4-ethylpyrido[2,3-b]pyrazin-3(4H)-one]
activity at 10 µM (INS-1 cells): 235%
Insulin secretion, % of ctrl at 50 μm of cpd (INS-1 cells): 251 % of ctrl

SMILES: CCn1c(=O)c(-c2ccccc2)nc2cccnc21 [Example 3-4, 4-ethyl-2-phenylpyrido[2,3-b]pyrazin-3(4H)-one]
activity at 10 µM (INS-1 cells): 226%
Insulin secretion, % of ctrl at 50 μm of cpd (INS-1 cells): 302 % of ctrl

SMILES: O=c1c(-c2ccc(Cl)cc2)nc2cccnc2n1C1CC1 [Example 3-5, 2-(4-chlorophenyl)-4-cyclopropylpyrido[2,3-b]pyrazin-3(4H)-one]
activity at 10 µM (INS-1 cells): 418%
Insulin secretion, % of ctrl at 50 μm of cpd (INS-1 cells): 610 % of ctrl

SMILES: O=c1c(-c2ccc(F)cc2)nc2cccnc2n1C1CC1 [Example 3-6, 4-cyclopropyl-2-(4-fluorophenyl)pyrido[2,3-b]pyrazin-3(4H)-one]
activity at 10 µM (INS-1 cells): 231%
Insulin secretion, % of ctrl at 50 μm of cpd (INS-1 cells): 255 % of ctrl

SMILES: O=c1c(-c2ccc(F)cc2)nc2cccnc2n1CC1CC1 [Example 3-7, 4-cyclopropylmethyl-2-(4-fluorophenyl)pyrido[2,3-b]pyrazin-3(4H)-one]
Insulin secretion, % of glucose control [1, 2]: 84 ± 10 % of glucose control
Insulin secretion, % of glucose control ([1]; glucose 8 mM, compound 10−4 M): 228 ± 12 % of glucose control
Insulin secretion, % of glucose control ([1]; glucose 8 mM, compound 10−5 M): 210 ± 9 % of glucose control
Insulin secretion, % of glucose control ([1]; glucose 8 mM, compound 10−6 M): 149 ± 9 % of glucose control
Insulin secretion, % of glucose control ([1]; glucose 8 mM, compound 10−7 M): 124 ± 7 % of glucose control
activity at 10 µM (INS-1 cells): 208%
Insulin secretion, % of ctrl at 50 μm of cpd (INS-1 cells): 221 % of ctrl

SMILES: O=c1c(-c2ccc(Cl)cc2)nc2cccnc2n1CC(F)F [Example 3-8, 2-(4-chlorophenyl)-4-(2,2-difluoroethyl)pyrido[2,3-b]pyrazin-3(4H)-one]
activity at 10 µM (INS-1 cells): 273%

melting point: 159 to 163 °C
SMILES: Cc1ccnc2c1nc(-c1ccc(Cl)cc1)c(=O)n2C1CC1 [Example 3-13, 2-(4-chlorophenyl)-4-cyclopropyl-8-methylpyrido[2,3-b]pyrazin-3(4H)-one]

melting point: 124 to 127 °C
SMILES: COCCn1c(=O)c(-c2ccc(F)cc2)nc2cccnc21 [Example 3-16, 2-(4-fluorophenyl)-4-(2-methoxyethyl)pyrido[2,3-b]pyrazin-3(4H)-one]
activity at 10 µM (INS-1 cells): 254%

SMILES: CC(C)n1c(=O)c(-c2ccc(Cl)cc2)nc2cccnc21 [Example 3-18, 2-(4-chlorophenyl)-4-isopropyl-pyrido[2,3-b]pyrazin-3(4H)-one]
activity at 10 µM (INS-1 cells): 338%

melting point: 165 to 167 °C
SMILES: Cc1cc(F)ccc1-c1nc2cccnc2n(C2CC2)c1=O [Example 6-2, 4-cyclopropyl-2-(4-fluoro-2-methylphenyl)pyrido[2,3-b]pyrazin-3(4H)-one]

Reference: patent US8609689B2, “Pyridopyrazinones derivatives insulin secretion stimulators, methods for obtaining them and use thereof for the treatment of diabetes” (Merck Patent GmbH, priority 2008, dated 2013)
